Measured values as given in patent US8741897B2, “Glucocorticoid mimetics, methods of making them, pharmaceutical compositions and uses thereof” (Boehringer Ingelheim Pharmaceuticals Inc., priority 2003, dated 2014).

System: glucocorticoid receptor function
Assay: one or more of the above assays (GR binding and glucocorticoid receptor cell assays: aromatase, IL-6, TAT, MMTV-Luc, IL-8, ICAM-Luc)
Format: cell-based
Conditions: assay not specified per compound

Row | Molecule | activity as agonists of the glucocorticoid receptor function in one or more of the above assays
1 | Cc1c(CC(O)(CC(C)(C)c2cc(-c3cccnc3)ccc2O)C(F)(F)F)[nH]c2cnccc12 (stereo not shown) [4-Pyridin-3-yl-2-[4,4,4-trifluoro-3-hydroxy-1,1-dimethyl-3-(3-methyl-1H-pyrrolo[2,3-c]pyridin-2-ylmethyl)butyl]phenol] | potent agonists
2 | COc1ccc(-c2cccnc2)cc1C(C)(C)CC(O)(Cc1cc2c(C)cncc2[nH]1)C(F)(F)F (stereo not shown) [1,1,1-Trifluoro-4-(2-methoxy-5-pyridin-3-ylphenyl)-4-methyl-2-(4-methyl-1H-pyrrolo[2,3-c]pyridin-2-ylmethyl)pentan-2-ol] | potent agonists
3 | COc1ccc(-c2cccnc2)cc1C(C)(C)CC(O)(Cc1[nH]c2cnccc2c1C)C(F)(F)F (stereo not shown) [1,1,1-Trifluoro-4-(2-methoxy-5-pyridin-3-ylphenyl)-4-methyl-2-(3-methyl-1H-pyrrolo[2,3-c]pyridin-2-ylmethyl)pentan-2-ol] | potent agonists
4 | CC(C)(CC(O)(Cc1cc2cc(-c3ccccn3)ccc2[nH]1)C(F)(F)F)c1cc(Cl)cc2c1OCC2 (stereo not shown) [4-(5-Chloro-2,3-dihydrobenzofuran-7-yl)-1,1,1-trifluoro-4-methyl-2-(5-pyridin-2-yl-1H-indol-2-ylmethyl)pentan-2-ol] | potent agonists
5 | Cc1ccc(F)cc1C(C)(C)CC(O)(Cc1cc2c(C)cncc2[nH]1)C(F)(F)F (stereo not shown) [1,1,1-Trifluoro-4-(5-fluoro-2-methylphenyl)-4-methyl-2-(4-methyl-1H-pyrrolo[2,3-c]pyridin-2-ylmethyl)pentan-2-ol] | potent agonists
6 | 4-Pyrimidin-5-yl-2-[4,4,4-trifluoro-3-hydroxy-1,1-dimethyl-3-(1H-pyrrolo[2,3-c]pyridin-ylmethyl)butyl]phenol | potent agonists
7 | CC(C)(CC(O)(Cc1cc2nnccc2[nH]1)C(F)(F)F)c1cc(F)ccc1O (stereo not shown) [4-Fluoro-2-[4,4,4-trifluoro-3-hydroxy-1,1-dimethyl-3-(5H-pyrrolo[3,2-c]pyridazin-6-ylmethyl)butyl]phenol] | potent agonists
8 | COc1ccc(-c2cncnc2)cc1C(C)(C)CC(O)(Cc1cc2cnccc2[nH]1)C(F)(F)F (stereo not shown) [1,1,1-Trifluoro-4-(2-methoxy-5-pyrimidin-5-ylphenyl)-4-methyl-2-(1H-pyrrolo[3,2-c]pyridin-2-ylmethyl)pentan-2-ol] | potent agonists
9 | CC(C)(CC(O)(Cc1cc2ncncc2[nH]1)C(F)(F)F)c1cc(F)cc2c1OCC2 (stereo not shown) [1,1,1-Trifluoro-4-(5-fluoro-2,3-dihydrobenzofuran-7-yl)-4-methyl-2-(5H-pyrrolo[3,2-d]pyrimidin-6-ylmethyl)pentan-2-ol] | potent agonists
10 | COc1ccc(-c2cccc(C#N)c2)cc1C(C)(C)CC(O)(Cc1cc2ccncc2[nH]1)C(F)(F)F (stereo not shown) [4′-Methoxy-3′-[4,4,4-trifluoro-3-hydroxy-1,1-dimethyl-3-(1H-pyrrolo[2,3-c]pyridin-2-ylmethyl)butyl]biphenyl-3-carbonitrile] | potent agonists
11 | CC(C)(CC(O)(Cc1cc2cc(-c3ccccc3)ncc2[nH]1)C(F)(F)F)c1cccc(CN2CCOCC2)c1 (stereo not shown) [1,1,1-Trifluoro-4-methyl-4-(3-morpholin-4-ylmethylphenyl)-2-(5-phenyl-1H-pyrrolo[2,3-c]pyridin-2-ylmethyl)pentan-2-ol] | potent agonists
12 | CC(C)Oc1cc2cc(CC(O)(CC(C)(C)c3cc(F)ccc3C(F)(F)F)C(F)(F)F)[nH]c2cn1 (stereo not shown) [1,1,1-Trifluoro-4-(5-fluoro-2-trifluoromethylphenyl)-2-(5-isopropoxy-1H-pyrrolo[2,3-c]pyridin-2-ylmethyl)-4-methylpentan-2-ol] | potent agonists
13 | COc1ccc(Br)cc1C(C)(C)CC(O)(Cc1cc2ccncc2[nH]1)C(F)(F)F (stereo not shown) [4-(5-Bromo-2-methoxyphenyl)-1,1,1-trifluoro-4-methyl-2-(1H-pyrrolo[2,3-c]pyridin-2-ylmethyl)pentan-2-ol] | potent agonists
14 | CC(C)(CC(O)(Cc1[nH]c2ccccc2c1Br)C(F)(F)F)c1cccc(F)c1 (stereo not shown) [2-(3-Bromo-1H-indol-2-ylmethyl)-1,1,1-trifluoro-4-(3-fluorophenyl)-4-methylpentan-2-ol] | potent agonists
15 | COc1ccc(Br)cc1C(C)(C)CC(O)(Cc1cc2cc(N(C)C)ncc2[nH]1)C(F)(F)F (stereo not shown) [4-(5-Bromo-2-methoxyphenyl)-2-(5-dimethylamino-1H-pyrrolo[2,3-c]pyridin-2-ylmethyl)-1,1,1-trifluoro-4-methylpentan-2-ol] | potent agonists
16 | CC(C)(CC(O)(Cc1cc2cc(N3CCCCC3)ncc2[nH]1)C(F)(F)F)c1cccc(F)c1 (stereo not shown) [1,1,1-Trifluoro-4-(3-fluorophenyl)-4-methyl-2-(5-piperidin-1-yl-1H-pyrrolo[2,3-c]pyridin-2-ylmethyl)pentan-2-ol] | potent agonists
17 | COc1ccc(F)cc1C(C)(C)CC(O)(Cn1ccc2c1CCCC2=O)C(F)(F)F (stereo not shown) [1-[4-(5-Fluoro-2-methoxyphenyl)-2-hydroxy-4-methyl-2-trifluoromethylpentyl]-1,5,6,7-tetrahydroindol-4-one] | agonists
18 | CC(C)C(=O)c1ccc2[nH]c(CC(O)(CC(C)(C)c3cc(Cl)cc4c3OCC4)C(F)(F)F)cc2n1 (stereo not shown) [1-{2-[4-(5-Chloro-2,3-dihydrobenzofuran-7-yl)-2-hydroxy-4-methyl-2-trifluoromethylpentyl]-1H-pyrrolo[3,2-b]pyridin-5-yl}-2-methylpropan-1-one] | potent agonists
19 | CC(C)(CC(O)(Cc1cc2cc(-c3cncnc3)ccc2[nH]1)C(F)(F)F)c1cc(F)cc2c1OCC2 (stereo not shown) [1,1,1-Trifluoro4-(5-fluoro-2,3-dihydrobenzofuran-7-yl)-4-methyl-2-(5-pyrimidin-5-yl-1H-indol-2-ylmethyl)pentan-2-ol] | potent agonists
20 | COc1ccc(C)cc1C(C)(C)CC(O)(Cc1cc2nc(N3CCCC3)ncc2[nH]1)C(F)(F)F (stereo not shown) [1,1,1-Trifluoro-4-(2-methoxy-5-methylphenyl)-4-methyl-2-(2-pyrrolidin-1-yl-5H-pyrrolo[3,2-d]pyrimidin-6-ylmethyl)pentan-2-ol] | potent agonists
21 | CC(C)(CC(O)(Cc1cc2cc(Oc3ccccc3)ncc2[nH]1)C(F)(F)F)c1cc(-c2cccnc2)ccc1O (stereo not shown) [4-Pyridin-3-yl-2-[4,4,4-trifluoro-3-hydroxy-1,1-dimethyl-3-(5-phenoxy-1H-pyrrolo[2,3-c]pyridin-2-ylmethyl)butyl]phenol] | potent agonists
22 | CC(C)(CC(O)(Cc1cc2ccncc2[nH]1)C(F)(F)F)c1cc(Br)ccc1O (stereo not shown) [4-Bromo-2-[4,4,4-trifluoro-3-hydroxy-1,1-dimethyl-3-(1H-pyrrolo[2,3-c]pyridin-2-ylmethyl)butyl]phenol] | potent agonists
